Where a name gives a salt, the structure may show the parent alone.
Assays:
[1] = system: relapsing EAE in SJL/J mice; experiment: Chronic relapsing EAE (model of chronic multiple sclerosis); type: in vivo; details: 10 mg/kg i.p. bid for 53 days
Procedure: An analysis of the use of VAP-1/SSAO inhibitors to treat inflammatory diseases of the CNS is performed through the use of a relapsing experimental autoimmune encephalomyelitis model (EAE) in SJL/J mice.
To examine the role of VAP-1 as a major regulator of lymphocyte recruitment to the CNS, VAP-1/SSAO inhibitor was evaluated in a chronic relapsing EAE model.
Then animals were monitored for signs of paralysis according to a 0-5 scale of scoring system as follows: • 0.5 partial tail weakness • 1 limp tail or waddling gait with tail tonicity; • 1.5 waddling gait with partial tail weakness • 2 waddling gait with limp tail (ataxia); • 2.5 ataxia with partial limb paralysis; • 3 full paralysis of one limb; • 3.5 full paralysis of one limb with partial paralysis of second limb; • 4 full paralysis of two limbs; • 4.5 moribund; • 5 death.
The results are expressed as mean clinical score (FIG. 9A), % incidence (number of mice with any paralysis/10 mice) (FIG. 9B), % mice with chronic disease (mice with at least one relapse) (FIG. 9C), and cumulative total number of relapses (FIG. 9D).

[2] = target: T1, SSAO activity in rat aorta and lung (Rattus norvegicus, UniProt O08590); experiment: In vivo inhibition of SSAO after single oral dose, radioactive assay; details: 4 hrs after treatment
T1 construct: the animals were euthanized and their aortas and lungs removed and frozen in liquid nitrogen; from tissue; host or cells: aorta and lung of female Sprague Dawley rats
T1 sequence (O08590 1-763): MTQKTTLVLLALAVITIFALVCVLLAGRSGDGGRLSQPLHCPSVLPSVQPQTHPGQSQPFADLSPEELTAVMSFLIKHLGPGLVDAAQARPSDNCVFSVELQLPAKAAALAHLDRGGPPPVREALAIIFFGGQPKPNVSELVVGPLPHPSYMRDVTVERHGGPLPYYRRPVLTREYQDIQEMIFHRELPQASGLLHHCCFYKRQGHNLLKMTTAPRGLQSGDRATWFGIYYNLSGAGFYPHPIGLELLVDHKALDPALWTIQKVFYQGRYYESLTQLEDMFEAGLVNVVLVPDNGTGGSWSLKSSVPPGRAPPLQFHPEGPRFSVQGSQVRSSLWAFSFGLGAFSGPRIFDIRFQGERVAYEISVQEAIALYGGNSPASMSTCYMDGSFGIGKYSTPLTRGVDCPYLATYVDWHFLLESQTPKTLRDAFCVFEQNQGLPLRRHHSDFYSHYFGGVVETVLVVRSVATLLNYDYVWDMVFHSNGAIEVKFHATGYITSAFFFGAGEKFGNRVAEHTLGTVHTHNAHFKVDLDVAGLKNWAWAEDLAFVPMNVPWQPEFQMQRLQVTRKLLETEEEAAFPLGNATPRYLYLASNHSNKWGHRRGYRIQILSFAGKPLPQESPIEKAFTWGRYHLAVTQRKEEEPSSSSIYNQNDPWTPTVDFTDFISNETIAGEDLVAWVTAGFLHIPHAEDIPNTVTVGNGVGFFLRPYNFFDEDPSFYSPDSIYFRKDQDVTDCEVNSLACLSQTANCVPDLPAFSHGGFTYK
Procedure: In vivo inhibition of SSAO was assessed in rat aorta and lungs, two of the tissues where SSAO activity is highest. Six week old female Sprague Dawley rats were administered 0, 0.1, 1, 10 and 50 mg/kg of the compound of example 8 in 2.5 ml/kg PBS by oral gavage. Four hours after compound administration the animals were euthanized and their aortas and lungs removed and frozen in liquid nitrogen. Tissues were homogenized in 0.1 M potassium phosphate pH 7.8 buffer (30 ml/g for aorta and 20 ml/g for lung) and centrifuged at 1000×g for 15 min. Supernatants were collected and used in the radioactive assay following the protocol described by Lizcano J. M. et al. (1998) Biochem. J. 331:69. Enzymatic reactions were initiated by incubating a 200 μl aliquot of the tissue homogenate with 20 μl of 0.4 mM ^14C-labeled benzylamine substrate (6 mCi/mmol specific activity, Pharmacia) for 30 min at RT. The assay was stopped by addition of 100 μl of 2 M citric acid, the assay volume was extracted with 5 ml toluene:ethyl acetate (1:1) containing 0.6% (w/v) 2,5-diphenyloxdazole (PPO), and an aliquot of the organic layer was counted by liquid scintillation. […] These inhibitors were added to the tissue supernatant prior to addition of benzylamine.

SMILES: C=C(CNN)c1ccccc1 [Example 2, Hydrochloride]
- cumulative number of relapses ([1]; p<0.0001 vs buffer): statistically significant reduction
- incidence of chronic disease (mice with at least one relapse) ([1]; p<0.0001 vs buffer): significant lower
- overall clinical severity ([1]; p<0.005 vs buffer): statistically significant reduction

SMILES: C=C(CNN)c1ccc(F)cc1.Cl [Example 8, N-[2-(4′-fluorophenyl)-allyl]-hydrazine Hydrochloride]
- ED50, in vivo inhibition of SSAO activity in aorta ([2]; rat aorta): 5 mg/kg
- ED50, in vivo inhibition of SSAO activity in lung ([2]; rat lung): 0.72 mg/kg

From patent US20050096360A1, “Inhibitors of semicarbazide-sensitive amine oxidase (SSAO) and VAP-1 mediated adhesion useful for treatment of diseases” (priority 2003, published 2005)
